The test system of assay [1] is Nucleic Acid. The assay is described as follows: Binding affinity to DNA minor groove region CGCAAATTTGCG assessed as melting temperature at 6 uM by thermal denaturation study. The format is nucleic-acid assay.
The test system of assay [2] is Nucleic Acid. The experiment in a line: Binding affinity to DNA minor groove region CGCAAATTTGCG assessed as change in melting temperature at 6 uM by thermal denaturation study. The format is nucleic-acid assay.
Assay [3] deals with Nucleic Acid. The assay is described as follows: Binding affinity to DNA minor groove region CATGGCCATG assessed as melting temperature at 6 uM by thermal denaturation study. The format is nucleic-acid assay.
In assay [4] the test system is Nucleic Acid. The experiment in a line: Binding affinity to DNA minor groove region CATGGCCATG assessed as change in melting temperature at 6 uM by thermal denaturation study. The class given is nucleic-acid assay.
A further assay has as its system AGS. The assay is described as follows: Cytotoxicity against human AGS cells after 48 hrs by sulforhodamine B assay. The class given is functional. A general note: Sulforhodamine B stains cellular protein and so reports cell mass.
The subject of a further assay is HepG2. The assay is described as follows: Cytotoxicity against human HepG2 cells after 48 hrs by sulforhodamine B assay. As to conditions: HepG2, 48 h. The class given is functional.
The test system of another assay is MCF7. The experiment in a line: Cytotoxicity against human MCF7 cells after 48 hrs by sulforhodamine B assay. As to conditions: MCF7, 48 h. The format is functional.

Bounds are passed on as bounds.

For the molecule `Cn1cc(NC(=O)c2cc(NC(=O)CNC(=N)N)cn2C)cc1C(=O)NCCC(=N)N`, the values for the Tm in the assay with Nucleic Acid [1] and in the assay on Nucleic Acid [3] were 69 °C and 48 °C, respectively. The thermal shift (ΔTm) is 18 °C with Nucleic Acid [2] and 0 °C with Nucleic Acid [4].

Take `Cn1cc(NC(=O)c2cc(NC(=O)C(C)(C)C)cn2C)cc1C(=O)NCCc1c[nH]c2ccccc12`: the concentration for 50% growth inhibition (GI50) was 23.5 µM in the assay with AGS, more than 40.9 µM in the assay with HepG2 and 17.4 µM in the assay on MCF7.

Consider `Cn1cc(NC(=O)c2cc(NC(=O)Nc3ccccc3)cn2C)cc1C(=O)NCCc1c[nH]c2ccccc12`, for which the GI50 with AGS is 16.8 µM; in the assay with HepG2, 14.3 µM; in the assay with MCF7, 19.7 µM. Moreover, the melting temperature (Tm) came to 53 °C in the assay on Nucleic Acid [1] and 45 °C in the assay with Nucleic Acid [3]. The thermal shift (ΔTm) in the assay on Nucleic Acid [2] worked out at 6 °C; with Nucleic Acid [4], 0 °C.

For `COC(=O)Nc1cc(C(=O)Nc2cc(C(=O)OCCc3ccccc3)n(C)c2)n(C)c1`, the GI50 was found to be 2.8 µM in the assay with AGS, 2 µM in the assay with HepG2 and 13 µM in the assay with MCF7. The Tm in the assay on Nucleic Acid [1] was 71 °C; with Nucleic Acid [3] it was 47 °C. The ΔTm in the assay on Nucleic Acid [2] was 25 °C; in the assay on Nucleic Acid [4], 0 °C.

On to `COC(=O)Nc1coc(C(=O)Nc2coc(C(N)=O)c2)c1` [PROXIMICIN A], for which the concentration for 50% growth inhibition (GI50) with AGS is 2 µM; with HepG2, 2.8 µM; in the assay on MCF7 it was 24.6 µM.

For `COC(=O)Nc1cc(C(=O)Nc2cc(C(=O)NCCC(C)C)n(C)c2)n(C)c1`, the GI50 in the assay on AGS, in the assay on HepG2 and in the assay with MCF7 was more than 20 µg/mL each time.

Turning to `COC(=O)Nc1cc(C(=O)Nc2cc(C(=O)NCCc3cnc[nH]3)n(C)c2)n(C)c1`, the GI50 with AGS, in the assay on HepG2 and in the assay with MCF7 was more than 20 µg/mL each time.

Consider `Cn1cc(NC(=O)c2cc(NC(=O)c3cc(NC=O)cn3C)cn2C)cc1C(=O)NCCC(=N)N`, for which the midpoint of thermal melting (Tm) in the assay with Nucleic Acid [1] stood at 65 °C; in the assay with Nucleic Acid [3] it was 45 °C. For the same molecule, the values for the thermal shift (ΔTm) with Nucleic Acid [2] and in the assay on Nucleic Acid [4] were 16 °C and 0 °C, respectively.

On to `Cn1cc(NC(=O)c2cc(NC(=O)OCC3c4ccccc4-c4ccccc43)cn2C)cc1C(=O)NCCc1c[nH]c2ccccc12`, for which the GI50 in the assay on AGS is more than 31.9 µM; in the assay with HepG2, 4.6 µM; with MCF7, 18.8 µM.

For `COC(=O)Nc1cc(C(=O)Nc2cc(C(=O)NCCCC(=O)O)n(C)c2)n(C)c1`, the concentration for 50% growth inhibition (GI50) with AGS, in the assay with HepG2 and in the assay with MCF7 was more than 20 µg/mL in each case.

In the case of `COC(=O)Nc1cc(C(=O)Nc2cc(C(=O)NCCc3c[nH]c4ccccc34)n(C)c2)n(C)c1`, the results for the GI50 in the assay on AGS, in the assay with HepG2 and in the assay on MCF7 were 17.7 µM, 21.6 µM and 24.9 µM, respectively.

On to `COC(=O)Nc1coc(C(=O)Nc2coc(C(=O)NCCc3c[nH]c4ccccc34)c2)c1` [PROXIMICIN C], for which the results for the GI50 with AGS, in the assay with HepG2 and in the assay on MCF7 were 0.6 µM, 1.8 µM and 20.6 µM, respectively.

In the case of `COC(=O)Nc1cc(C(=O)Nc2cc(C(=O)O)n(C)c2)n(C)c1`, the concentration for 50% growth inhibition (GI50) in the assay with AGS, in the assay on HepG2 and in the assay with MCF7 was more than 20 µg/mL throughout.

With `Cn1cc(NC(=O)c2cc(NC(=O)OCc3ccccc3)cn2C)cc1C(=O)NCCc1c[nH]c2ccccc12`, the 50% growth inhibitory concentration (GI50) in the assay with AGS turned out to be 9.3 µM; with HepG2, 5.6 µM; in the assay with MCF7, 10.8 µM. Also, the Tm is 65 °C in the assay on Nucleic Acid [1] and 70 °C with Nucleic Acid [3]. Besides, the thermal shift (ΔTm) in the assay with Nucleic Acid [2] was 17 °C; in the assay with Nucleic Acid [4] it was 23 °C.

Regarding `COC(=O)Nc1cc(C(=O)Nc2cc(C(=O)NCCc3ccccc3)n(C)c2)n(C)c1`, the GI50 with AGS, in the assay on HepG2 and in the assay on MCF7 was more than 20 µg/mL throughout.

As to `COC(=O)Nc1cc(C(=O)Nc2cc(C(=O)NCCc3c[nH]c4ccc(O)cc34)n(C)c2)n(C)c1`, the GI50 in the assay on AGS, in the assay with HepG2 and in the assay on MCF7 was more than 20 µg/mL each time.

For `Cn1cc(NC(=O)c2cc(NC(=O)OCC(Cl)(Cl)Cl)cn2C)cc1C(=O)NCCc1c[nH]c2ccccc12`, the GI50 in the assay on AGS amounted to 10 µM; in the assay on HepG2, 4 µM; in the assay on MCF7, 10.3 µM. In addition, the midpoint of thermal melting (Tm) in the assay on Nucleic Acid [1] stood at 59 °C; with Nucleic Acid [3], 68 °C. The thermal shift (ΔTm) was 11 °C with Nucleic Acid [2] and 21 °C in the assay on Nucleic Acid [4].

With `C=CCOC(=O)Nc1cc(C(=O)Nc2cc(C(=O)NCCc3c[nH]c4ccccc34)n(C)c2)n(C)c1`, the GI50 in the assay with AGS was 1.7 µM; in the assay with HepG2, 14.3 µM; in the assay on MCF7 it was 15.4 µM.

For `CC(=O)Nc1cc(C(=O)Nc2cc(C(=O)NCCc3c[nH]c4ccccc34)n(C)c2)n(C)c1`, the concentration for 50% growth inhibition (GI50) in the assay with AGS, in the assay on HepG2 and in the assay with MCF7 was more than 20 µg/mL in each case.

Consider `Cn1cc(NC(=O)c2cc(NC(=O)NCc3ccccc3)cn2C)cc1C(=O)NCCc1c[nH]c2ccccc12`, for which the 50% growth inhibitory concentration (GI50) in the assay with AGS, in the assay with HepG2 and in the assay with MCF7 was more than 20 µg/mL each time.

On to `COC(=O)Nc1cc(C(=O)Nc2cc(C(=O)NCCc3ccc(O)c(O)c3)n(C)c2)n(C)c1`, for which the 50% growth inhibitory concentration (GI50) in the assay with AGS, in the assay on HepG2 and in the assay with MCF7 was more than 20 µg/mL each time.

Turning to `COC(=O)Nc1coc(C(=O)Nc2coc(C(=O)NCCc3ccc(O)cc3)c2)c1` [PROXIMICIN B], the GI50 amounted to 3.6 µM in the assay on AGS, 23 µM in the assay with HepG2 and 12.1 µM in the assay with MCF7.

Take `COC(=O)Nc1cc(C(=O)Nc2cc(C(=O)NC(Cc3c[nH]c4ccccc34)C(=O)O)n(C)c2)n(C)c1` (configuration not stated): the GI50 in the assay on AGS, with HepG2 and in the assay on MCF7 was more than 20 µg/mL each time.

The Tm is the temperature at the midpoint of the melting transition. In general, ΔTm refers to the shift of the melting midpoint relative to a reference. Usually GI50 stands for the concentration giving 50% growth inhibition. Higher therefore signals less potent growth inhibition.

For the origin of these results see ChEMBL document CHEMBL1151923, “Synthesis and evaluation of a netropsin-proximicin-hybrid library for DNA binding and cytotoxicity” (2009).
